Experimental data from paper PMC12592502, “Unraveling the mechanisms behind the enhanced efficacy of β-lactam-based sideromycins” (Communications Biology, 2025).
Values after ≈ are worked out from the molar mass of the structure shown. Values joined by “and” are separate entries in the source; they are usually repeats but may differ in a detail not shown here. Equal values may be shown once. Read-outs that look alike come from different tables or passages of the source.

Experiments:
A. baumannii ATCC 19606 = experiment: MIC, broth microdilution (CLSI); format: cell-based, Acinetobacter baumannii; conditions: for MIC: Acinetobacter baumannii
Protocol: (§1) All bacterial strains (see description and sources Table S1) were stored at −80 °C, and grown on tryptone soya agar (TSA) at 35 °C. The iron-deprived (ID)-MHBCA (cation-adjusted Muller-Hinton Broth, Becton Dickinson, Mississauga, ON, Canada) medium was prepared as reported by refs. [21],[50]. Briefly, MHBCA was treated with 10% Chelex® 50-100 mesh (Sigma) and stirred for 6 h at room temperature. The resin was removed by filtration. Divalent Ca^2+ (CaCl2), Mg^2+ (MgCl2), and Zn^2+(ZnSO4), were then added in the iron-depleted medium at 22, 12, and 1 μg/ml respectively. Finally, the pH was adjusted to 7.3, and the medium was sterilized with a 0.2-μm filter. Regular MHBCA (i.e., not treated with Chelex®) was used to compare the inhibitory activity of conjugates in iron-sufficient conditions. The resin used for Chelex treatment was always fresh and had never been regenerated, ensuring consistent iron removal.
(§2) Minimal inhibitory concentrations (MICs) were performed using a broth microdilution technique according to the Clinical and Laboratory Standards Institute (CLSI) guidelines. MICs were determined in MHBCA and in ID-MHBCA. To check the impact of β-lactamases, MICs in the presence of a β-lactamase inhibitor were also determined. The inhibitor was homogenized at 2X the final concentration and added to the bacterial inoculum just before distributing cells into the wells containing the drug dilutions. The final concentration of each inhibitor was 4 μg/mL for clavulanic acid (tested against K. pneumoniae) and 200 μg/mL for 3-aminophenylboronic acid (tested against P. aeruginosa and A. baumannii).

E. coli ATCC 25922 = experiment: MIC, broth microdilution (CLSI); format: cell-based, Escherichia coli; conditions: for MIC: Escherichia coli
Protocol: as §1, with “conditions.” for “conditions. The resin used for Chelex treatment was always fresh and had never been regenerated, ensuring consistent iron removal.”
as §2

[1] = tested on: P. aeruginosa 1625 ΔmexAB-oprM, ΔmexEF-oprN; experiment: MIC, efflux pump mutant; format: cell-based, Pseudomonas aeruginosa; conditions: Pseudomonas aeruginosa
Protocol: as §2

[2] = tested on: P. aeruginosa 1624 ΔmexCD-oprJ, ΔmexEF-oprN; experiment: MIC, efflux pump mutant; format: cell-based, Pseudomonas aeruginosa; conditions: Pseudomonas aeruginosa
Protocol: as §2

E. coli lptD4213 = experiment: MIC, hyperpermeable mutant; format: cell-based, Escherichia coli; conditions: Escherichia coli
Protocol: as §1, §2

E. coli Δfiu = experiment: MIC, Keio mutant; format: cell-based, Escherichia coli
Protocol: as §1, with “conditions.” for “conditions. The resin used for Chelex treatment was always fresh and had never been regenerated, ensuring consistent iron removal.”
as §2

E. coli ΔfhuA = experiment: MIC, Keio mutant; format: cell-based, Escherichia coli
Protocol: as §1, with “conditions.” for “conditions. The resin used for Chelex treatment was always fresh and had never been regenerated, ensuring consistent iron removal.”
as §2

E. coli ΔcirA = experiment: MIC, Keio mutant; format: cell-based, Escherichia coli; conditions: Escherichia coli
Protocol: as §1, with “conditions.” for “conditions. The resin used for Chelex treatment was always fresh and had never been regenerated, ensuring consistent iron removal.”
as §2

E. coli MC4100 = experiment: Bactericidal effect in the uptake assay (CFU counts); format: cell-based, Escherichia coli; conditions: for dCFU (Δlog10 CFU/mL, count with drug minus growth control): time 0 h, single replicates
Excerpt: The bactericidal effect determined at each time point was the difference in the concentration of bacteria in the assay tube with antibiotic and that measured in the growth control tube without drug (ΔLog10 CFU/mL). The normal distribution of the data was verified with the Shapiro–Wilk test and the statistical analysis was a comparison of repeated measures ANOVA (*p ≤ 0.05, **p ≤ 0.01, ***p ≤ 0.001) between each time point relatively to the 0-h time point.

[3] = tested on: P. aeruginosa 2302 MexAB, MexCD, MexEF upregulated; experiment: MIC, efflux pump overexpressing strain; format: cell-based, Pseudomonas aeruginosa; conditions: Pseudomonas aeruginosa
Protocol: as §2

K. pneumoniae ATCC 13883 = experiment: MIC, broth microdilution (CLSI); format: cell-based, Klebsiella pneumoniae; conditions: for MIC with β-lactamase inhibitor (βI): + 4 μg/mL clavulanic acid; for MIC: Klebsiella pneumoniae
Protocol: as §1, §2

[4] = ID-MHBCA, 0 and 1 µg/mL supplemental iron (Table S2)
[5] = ID-MHBCA, 1 versus 0 µg/mL supplemental iron (peer review file table)

Q: With `O=C(CN(CCCCNC(=O)c1cccc(O)c1O)C(=O)c1cccc(O)c1O)NC(C(=O)NC1C(=O)N2C(C(=O)O)=C(Cl)CCC12)c1ccccc1` (centres unmarked) [BLOR, bis-catechol (azotochelin)-loracarbef] as the compound, how does the MIC (A. baumannii ATCC 19606; ATCC19606, ID-MHBCA (−), 0 µg/mL supplemental iron, read-out: MIC) read?
A: The MIC was 0.024 µM (≈ 0.018 µg/mL).

Q: And the MIC (A. baumannii ATCC 19606; ATCC19606, ID-MHBCA + 0.1 µg/mL supplemental iron, read-out: MIC)?
A: Its MIC is 0.1 µM.

Q: What about the MIC (A. baumannii ATCC 19606; ATCC19606, ID-MHBCA + 1 µg/mL supplemental iron, read-out: MIC) of the same compound?
A: Its MIC is 0.4 µM.

Q: What about the MIC (A. baumannii ATCC 19606; ATCC19606, ID-MHBCA, + 200 μg/mL APB, read-out: MIC with β-lactamase inhibitor (βI)) of the same compound?
A: Its MIC is 0.012 µM.

Q: What about the MIC (A. baumannii ATCC 19606; ATCC19606, MHBCA (+), no inhibitor, read-out: MIC) of the same compound?
A: The MIC was 0.05 µM (≈ 0.0375 µg/mL).

Q: And the MIC (A. baumannii ATCC 19606; ATCC19606, MHBCA, + 200 μg/mL APB, read-out: MIC with β-lactamase inhibitor (βI))?
A: Its MIC is 0.012 µM.

Q: And the “MIC ratio 0/1” value (A. baumannii ATCC 19606; [4])?
A: The value was 16.

Q: And the “MIC ratio 1/0” value (A. baumannii ATCC 19606; [5])?
A: Its value is 16.

Q: And the “MIC ratio unconjugated β-lactam/conjugate” value (A. baumannii ATCC 19606; MHBCA)?
A: The value was greater than 4096.

Q: What about the “MIC in combination with PAβN” value (A. baumannii ATCC 19606; MHBCA, + 25 µg/mL PAβN) of the same compound?
A: The value was greater than 6.3 µM.

Q: What about the MIC (E. coli ATCC 25922; ATCC25922, ID-MHBCA + 0.1 µg/mL supplemental iron) of the same compound?
A: The MIC was 0.05 µM.

Q: And the MIC (E. coli ATCC 25922; ATCC25922, ID-MHBCA + 1 µg/mL supplemental iron)?
A: Its MIC is 0.1 µM.

Q: And the MIC (E. coli ATCC 25922; ATCC25922, MHBCA (+))?
A: The MIC was 0.024 µM (≈ 0.018 µg/mL).

Q: What about the MIC (E. coli ATCC 25922; ATCC25922, iron-deprived ID-MHBCA (−), 0 µg/mL supplemental iron) of the same compound?
A: The MIC was 0.012 µM (≈ 0.009 µg/mL).

Q: What about the “MIC ratio unconjugated β-lactam/conjugate” value (E. coli ATCC 25922; ID-MHBCA) of the same compound?
A: Its value is 128.

Q: And the “MIC ratio 0/1” value (E. coli ATCC 25922; [4])?
A: Its value is 8.

Q: And the “MIC ratio 1/0” value (E. coli ATCC 25922; [5])?
A: Its value is 8.

Q: And the “MIC ratio unconjugated β-lactam/conjugate (AMP/BAMP, LOR/BLOR, CEF/MCEF)” value (E. coli ATCC 25922; MHBCA)?
A: Its value is 128.

Q: What about the MIC [1] of the same compound?
A: Its MIC is 6.3 µM (≈ 4.73 µg/mL).

Q: And the MIC [2]?
A: Its MIC is 6.3 µM (≈ 4.73 µg/mL).

Q: What about the MIC (E. coli lptD4213; LPTD4213, lptD4213, ID-MHBCA (−)) of the same compound?
A: Its MIC is 0.006 µM (≈ 0.0045 µg/mL).

Q: And the MIC (E. coli lptD4213; LPTD4213, lptD4213, MHBCA (+))?
A: The MIC was 0.006 µM (≈ 0.0045 µg/mL).

Q: What about the MIC (E. coli Δfiu; Escherichia coli, ID-MHBCA) of the same compound?
A: The MIC was 0.024 µM (≈ 0.018 µg/mL).

Q: And the MIC (E. coli Δfiu; Escherichia coli, MHBCA)?
A: Its MIC is 0.1 to 0.4 µM (≈ 0.075 to 0.3 µg/mL).

Q: What about the MIC (E. coli Δfiu; MHBCA) of the same compound?
A: Its MIC is 0.1 µM (≈ 0.075 µg/mL).

Q: And the MIC (E. coli ΔfhuA; Escherichia coli, ID-MHBCA)?
A: Its MIC is 0.024 µM (≈ 0.018 µg/mL).

Q: What about the MIC (E. coli ΔfhuA; Escherichia coli, MHBCA) of the same compound?
A: Its MIC is 0.1 to 0.4 µM (≈ 0.075 to 0.3 µg/mL).

Q: And the MIC (E. coli ΔfhuA; MHBCA)?
A: Its MIC is 0.2 µM (≈ 0.15 µg/mL).

Q: And the MIC (E. coli ΔcirA; ID-MHBCA)?
A: The MIC was 0.2 µM (≈ 0.15 µg/mL).

Q: And the MIC (E. coli ΔcirA; MHBCA)?
A: Its MIC is 13 µM (≈ 9.75 µg/mL).

Q: And the “bacterial inhibition, less than the control without antibiotic” value (E. coli MC4100; 4-h time point, MHBCA, 200 μM drug, inoculum 8.5 log10 CFU/mL)?
A: Its value is ~ 1.2 log10 CFU/mL.

Q: What about the “dCFU (Δlog10 CFU/mL, count with drug minus growth control)” value (E. coli MC4100; ID FALSE (MHBCA), 200 μM drug) of the same compound?
A: Its value is 0.04788 and 0.3837 and 0.3931.

Q: What about the dCFU (E. coli MC4100; ID FALSE (MHBCA), time 8 h) of the same compound?
A: Its dCFU is -3.459.

Q: And the dCFU (E. coli MC4100; ID FALSE (MHBCA), time 10 h)?
A: Its dCFU is -3.652.

Q: And the dCFU (E. coli MC4100; ID FALSE (MHBCA), time 24 h)?
A: Its dCFU is -3.754.

Q: What about the “dCFU (Δlog10 CFU/mL, count with drug minus growth control)” value (E. coli MC4100; ID TRUE (ID-MHBCA), 200 μM drug) of the same compound?
A: Its value is -0.2509 and -0.1259 and 0.08749 and -0.2979 and -0.04259.

Q: And the MIC [3]?
A: The MIC was 13 µM (≈ 9.75 µg/mL).

Q: What about the “MIC ratio unconjugated β-lactam/conjugate” value (K. pneumoniae ATCC 13883; ID-MHBCA) of the same compound?
A: The value was 16.

Q: And the “MIC ratio 0/1” value (K. pneumoniae ATCC 13883; [4])?
A: The value was 64.

Q: And the “MIC ratio 1/0” value (K. pneumoniae ATCC 13883; [5])?
A: Its value is 64.

Q: And the “MIC with β-lactamase inhibitor (βI)” value (K. pneumoniae ATCC 13883; ID-MHBCA)?
A: The value was 0.1 µM.

Q: And the MIC (K. pneumoniae ATCC 13883; ATCC13883, ID-MHBCA (−), 0 µg/mL supplemental iron)?
A: The MIC was 0.1 µM (≈ 0.075 µg/mL).

Q: What about the MIC (K. pneumoniae ATCC 13883; ATCC13883, ID-MHBCA + 0.1 µg/mL supplemental iron) of the same compound?
A: Its MIC is 0.4 µM.

Q: And the MIC (K. pneumoniae ATCC 13883; ATCC13883, ID-MHBCA + 1 µg/mL supplemental iron)?
A: The MIC was 6.3 µM.

Q: And the MIC (K. pneumoniae ATCC 13883; ATCC13883, MHBCA (+))?
A: Its MIC is 0.2 µM (≈ 0.15 µg/mL).

Q: And the “MIC ratio unconjugated β-lactam/conjugate” value (K. pneumoniae ATCC 13883; MHBCA)?
A: Its value is 8.

Q: And the “MIC with β-lactamase inhibitor (βI)” value (K. pneumoniae ATCC 13883; MHBCA)?
A: The value was 0.2 µM.
